The compounds below were run against T1, MAT2A (Homo sapiens, UniProt P31153) (assay: MAT2A biochemical assay (colorimetric inorganic phosphate detection, PiColorLock)). Conditions: recombinant His6-tagged MAT2A 1 μg/ml; 60 minutes preincubation at 25° C.; L-Met 80 μM, ATP 100 μM; 60 minutes reaction; read at 623 nm; read-out: MAT2A Inhibition Score.
T1 construct: His6; made in house; host or cells: SF9 insect cells
Procedure: In the reaction catalyzed by MAT2A enzyme, L-Met and ATP were converted to SAM, inorganic phosphate, and inorganic diphosphate. […] The concentration of malachite green phosphomolybdate produced in the detection reaction is thus directly related to the quantity of product produced by the MAT2A enzyme. Multiple commercial kits exist for this method of phosphate detection and quantification, such as PiColorLock Gold (Innova Biosciences). Typical reaction was performed in 50 μl final volume, containing buffer (Tris, pH 8.0, 50 mM KCl, 15 mM MgCl2, 300 uM EDTA, bovine serum albumin at 0.005% w/v) and 1 μg/ml MAT2A. Compounds were added in 1 μl of DMSO at the desired concentration; a typical dose response curve contained ten points with three-fold dilution between compound concentrations. […] The reaction was allowed to proceed for 60 minutes at room temperature then halted by the addition of 13 μl of PiColor Lock reagent. After a further 5 minutes of incubation at room temperature, […] of PiColor Stabilizer was added and the reactions were further incubated at 25° C. for 25 minutes. […] Recombinant MAT2A protein was expressed in SF9 insect cells and purified by metal chelate affinity chromatography, using methods well known in the art. After expression of His6-tagged MAT2A cells were disrupted by 4 passes through an M-Yl 10 Micro fluidizer (Microfluidics) set to 500 psi, and then centrifuged at 22,000 rcf for 20 min at 4° C. The supernatant was harvested and loaded at 15 cm/h on a Histrap FF 5*1 ml column (GE) which was equilibrated with 50 mM Tris, 500 mM NaCl, pH7.4. Host cell contaminants were removed by washing the column with equilibration buffer followed by equilibration buffer containing 20 mM imidazole and 60 mM imidazole to baseline. MAT2A protein was eluted by the addition of buffer containing 250 mM imidazole, dialized into 50 mM NaCl, 50 mM Tris, pH 7.4, flash frozen in liquid nitrogen, and stored at −80° C. until use.

T1 sequence (P31153 whole entry): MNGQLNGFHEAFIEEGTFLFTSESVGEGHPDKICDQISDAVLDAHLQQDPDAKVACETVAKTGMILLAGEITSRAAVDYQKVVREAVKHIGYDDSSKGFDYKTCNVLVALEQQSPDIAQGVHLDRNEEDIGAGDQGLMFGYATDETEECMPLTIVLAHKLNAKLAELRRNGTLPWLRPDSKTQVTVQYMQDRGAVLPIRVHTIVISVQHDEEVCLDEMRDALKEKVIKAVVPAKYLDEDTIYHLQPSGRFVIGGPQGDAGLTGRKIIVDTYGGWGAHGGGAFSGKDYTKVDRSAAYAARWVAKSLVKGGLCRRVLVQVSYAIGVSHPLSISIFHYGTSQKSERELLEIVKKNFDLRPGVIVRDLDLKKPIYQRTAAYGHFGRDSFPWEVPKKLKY

Compound | IC50
COc1ccc(-c2c(Nc3cccnn3)[nH]c3c(-c4ccccc4)c(-c4ccccc4)nn3c2=O)cc1 [Compound 101, 6-(4-methoxyphenyl)-2,3-diphenyl-5-(pyridazin-3-ylamino)pyrazolo[1,5-a]pyrimidin-7(4H)-one] | < 100 nM
COc1ccc(-c2c(Nc3ccccn3)[nH]c3c(-c4ccccc4)c(-c4ccccc4)nn3c2=O)cc1 [Compound 102, 6-(4-methoxyphenyl)-2,3-diphenyl-5-(pyridin-2-ylamino)pyrazolo[1,5-a]pyrimidin-7(4H)-one] | < 100 nM
COc1ccc(-c2c(Nc3cccnc3)[nH]c3c(-c4ccccc4)c(-c4ccccc4)nn3c2=O)cc1 [Compound 103, 6-(4-methoxyphenyl)-2,3-diphenyl-5-(pyridin-3-ylamino)pyrazolo[1,5-a]pyrimidin-7(4H)-one] | < 100 nM
COc1ccc(-c2c(Nc3ccc(C#N)cn3)[nH]c3c(-c4ccccc4)c(-c4ccccc4)nn3c2=O)cc1 [Compound 104, 6-((6-(4-methoxyphenyl)-7-oxo-2,3-diphenyl-4,7-dihydropyrazolo[1,5-a]pyrimidin-5-yl)amino)nicotinonitrile] | < 100 nM
COc1ccc(-c2c(Nc3ccc(F)cn3)[nH]c3c(-c4ccccc4)c(-c4ccccc4)nn3c2=O)cc1 [Compound 105, 5-((5-fluoropyridin-2-yl)amino)-6-(4-methoxyphenyl)-2,3-diphenylpyrazolo[1,5-a]pyrimidin-7(4H)-one] | < 100 nM
COc1ccc(-c2c(Nc3ccc(Cl)cn3)[nH]c3c(-c4ccccc4)c(-c4ccccc4)nn3c2=O)cc1 [Compound 106, 5-((5-chloropyridin-2-yl)amino)-6-(4-methoxyphenyl)-2,3-diphenylpyrazolo[1,5-a]pyrimidin-7(4H)-one] | < 100 nM
COc1ccc(-c2c(Nc3ccc([N+](=O)[O-])cn3)[nH]c3c(-c4ccccc4)c(-c4ccccc4)nn3c2=O)cc1 [Compound 107, 6-(4-methoxyphenyl)-5-((5-nitropyridin-2-yl)amino)-2,3-diphenylpyrazolo[1,5-a]pyrimidin-7(4H)-one] | < 100 nM
COc1ccc(-c2c(Nc3ccc(O)cn3)[nH]c3c(-c4ccccc4)c(-c4ccccc4)nn3c2=O)cc1 [Compound 108, 5-(5-hydroxypyridin-2-ylamino)-6-(4-methoxyphenyl)-2,3-diphenylpyrazolo[1,5-a]pyrimidin-7(4H)-one] | < 100 nM
COc1ccc(-c2c(Nc3cc(O)ccn3)[nH]c3c(-c4ccccc4)c(-c4ccccc4)nn3c2=O)cc1 [Compound 109, 5-((4-hydroxypyridin-2-yl)amino)-6-(4-methoxyphenyl)-2,3-diphenylpyrazolo[1,5-a]pyrimidin-7(4H)-one] | < 100 nM
COc1ccc(-c2c(Nc3cccc(F)n3)[nH]c3c(-c4ccccc4)c(-c4ccccc4)nn3c2=O)cc1 [Compound 110, 5-((6-fluoropyridin-2-yl)amino)-6-(4-methoxyphenyl)-2,3-diphenylpyrazolo[1,5-a]pyrimidin-7(4H)-one] | < 100 nM
COc1ccc(-c2c(Nc3cccc(C#N)n3)[nH]c3c(-c4ccccc4)c(-c4ccccc4)nn3c2=O)cc1 [Compound 111, 6-((6-(4-methoxyphenyl)-7-oxo-2,3-diphenyl-4,7-dihydropyrazolo[1,5-a]pyrimidin-5-yl)amino)picolinonitrile] | < 100 nM
COc1ccc(-c2c(Nc3cccc(C(N)=O)n3)[nH]c3c(-c4ccccc4)c(-c4ccccc4)nn3c2=O)cc1 [Compound 112, 6-((6-(4-methoxyphenyl)-7-oxo-2,3-diphenyl-4,7-dihydropyrazolo[1,5-a]pyrimidin-5-yl)amino)picolinamide] | < 100 nM
COc1ccc(-c2c(Nc3ncccc3O)[nH]c3c(-c4ccccc4)c(-c4ccccc4)nn3c2=O)cc1 [Compound 113, 5-(3-hydroxypyridin-2-ylamino)-6-(4-methoxy-phenyl)-2,3-diphenylpyrazolo[1,5-a]pyrimidin-7(4H)-one] | < 100 nM
COc1ccc(-c2c(Nc3cc(C#N)ccn3)[nH]c3c(-c4ccccc4)c(-c4ccccc4)nn3c2=O)cc1 [Compound 114, 2-(6-(4-methoxyphenyl)-7-oxo-2,3-diphenyl-4,7-dihydropyrazolo[1,5-a]pyrimidin-5-ylamino)isonicotinonitrile] | < 100 nM
COc1ccc(-c2c(Nc3ncc(C#N)cn3)[nH]c3c(-c4ccccc4)c(-c4ccccc4)nn3c2=O)cc1 [Compound 115, 2-(6-(4-methoxyphenyl)-7-oxo-2,3-diphenyl-4,7-dihydropyrazolo[1,5-a]pyrimidin-5-ylamino)pyrimidine-5-carbonitrile] | < 100 nM
COc1ccc(-c2c(Nc3ccncn3)[nH]c3c(-c4ccccc4)c(-c4ccccc4)nn3c2=O)cc1 [Compound 116, 6-(4-methoxyphenyl)-2,3-diphenyl-5-(pyrimidin-4-ylamino)pyrazolo[1,5-a]pyrimidin-7(4H)-one] | < 100 nM
COc1ccc(-c2c(Nc3cc(N)ncn3)[nH]c3c(-c4ccccc4)c(-c4ccccc4)nn3c2=O)cc1 [Compound 117, 5-((6-aminopyrimidin-4-yl)amino)-6-(4-methoxyphenyl)-2,3-diphenylpyrazolo[1,5-a]pyrimidin-7(4H)-one] | < 100 nM
COc1ccc(-c2c(Nc3ccnc(OC)n3)[nH]c3c(-c4ccccc4)c(-c4ccccc4)nn3c2=O)cc1 [Compound 118, 6-(4-methoxyphenyl)-5-((2-methoxypyrimidin-4-yl)amino)-2,3-diphenylpyrazolo[1,5-a]pyrimidin-7(4H)-one] | < 100 nM
COc1ccc(-c2c(Nc3ccnc(O)n3)[nH]c3c(-c4ccccc4)c(-c4ccccc4)nn3c2=O)cc1 [Compound 119, 5-(2-hydroxypyrimidin-4-ylamino)-6-(4-methoxyphenyl)-2,3-diphenyl-pyrazolo[1,5-a]pyrimidin-7(4H)-one] | < 100 nM
COc1ccc(-c2c(Nc3cncnc3)[nH]c3c(-c4ccccc4)c(-c4ccccc4)nn3c2=O)cc1 [Compound 120, 6-(4-methoxyphenyl)-2,3-diphenyl-5-(pyrimidin-5-ylamino)pyrazolo[1,5-a]pyrimidin-7(4H)-one] | < 100 nM
COc1ccc(-c2c(Nc3ncccn3)[nH]c3c(-c4ccccc4)c(-c4ccccc4)nn3c2=O)cc1 [Compound 121, 6-(4-methoxyphenyl)-2,3-diphenyl-5-(pyrimidin-2-ylamino)pyrazolo[1,5-a]pyrimidin-7(4H)-one] | < 100 nM
COc1ccc(-c2c(Nc3ncc(Cl)cn3)[nH]c3c(-c4ccccc4)c(-c4ccccc4)nn3c2=O)cc1 [Compound 122, 5-((5-chloropyrimidin-2-yl)amino)-6-(4-methoxyphenyl)-2,3-diphenylpyrazolo[1,5-a]pyrimidin-7(4H)-one] | < 100 nM
COc1ccc(-c2c(Nc3ccc(N)nn3)[nH]c3c(-c4ccccc4)c(-c4ccccc4)nn3c2=O)cc1 [Compound 123, 5-((6-aminopyridazin-3-yl)amino)-6-(4-methoxyphenyl)-2,3-diphenylpyrazolo[1,5-a]pyrimidin-7(4H)-one] | < 100 nM
COc1ccc(-c2c(Nc3ccc(OC)nn3)[nH]c3c(-c4ccccc4)c(-c4ccccc4)nn3c2=O)cc1 [Compound 124, 6-(4-methoxyphenyl)-5-((6-methoxypyridazin-3-yl)amino)-2,3-diphenylpyrazolo[1,5-a]pyrimidin-7(4H)-one] | < 100 nM
